Measurements: patent US6380384B1, “1,2-dihydro-2-oxoquinoline derivatives” (Taisho Pharmaceutical Co., Ltd., priority 1997, dated 2002)

Target: T1, mitochondrial diazepam binding inhibitor receptor (MDR) (Rattus norvegicus, UniProt P16257)
T1 construct: Crude mitochondria fractions prepared from rat cerebral cortex were used as a receptor sample; from tissue; host or cells: rat cerebral cortex, crude mitochondria fraction
Assay: MDR receptor binding assay ([3H]PK11195 displacement, crude mitochondria fractions from rat cerebral cortex)
Conditions: 50% inhibition of [3H]PK11195 (2 nM) binding; rat cerebral cortex crude mitochondria fraction, 4° C., 90 minutes
Protocol: Experiment [MDR Receptor Binding Assay]
Crude mitochondria fractions prepared from rat cerebral cortex were used as a receptor sample, and [^3H]PK11195 was used as a [^3H]-labeled ligand.
A binding assay using the [^3H]-labeled ligand was carried out according to the following method as described in Journal of Pharmacology and Experimental Therapeutics, 262, 971(1992).
Preparation of Receptor Sample: Rat cerebral cortex was homogenized using a Teflon-coated homogenizer in a 10 mM HEPES buffer (pH 7.4) containing 0.32 M sucrose in ten volumes of the wet weight. The homogenate was centrifuged at 900×g for 10 minutes, and the resulting supernatant was centrifuged at 9,000×g for 10 minutes. The precipitate was suspended in a HEPES buffer to give a protein concentration of 1 mg/ml, and centrifuged at 12,000×g for 10 minutes. The resulting precipitate was suspended in a 50 mM HEPES buffer (pH 7.4) to give a crude mitochondria fraction.
MDR Binding Assay:. Mitochondria sample (1.0 mg protein/ml), [^3H]PK11195 (2 nM) and the test drug were reacted at 4° C. for 90 minutes.
After completion of the reaction, the reaction mixture was filtered with suction through a glass filter (GF/B) treated with 0.3% polyethyleneimine, and the radioactivity on the filter was measured by a liquid scintillation spectrometer.
The binding at the reaction in the presence of 10 μM PK11195 was defined as non-specific binding of [^3H]PK11195, and the difference between total binding and non-specific binding was defined as specific binding.

T1 sequence (P16257 whole entry): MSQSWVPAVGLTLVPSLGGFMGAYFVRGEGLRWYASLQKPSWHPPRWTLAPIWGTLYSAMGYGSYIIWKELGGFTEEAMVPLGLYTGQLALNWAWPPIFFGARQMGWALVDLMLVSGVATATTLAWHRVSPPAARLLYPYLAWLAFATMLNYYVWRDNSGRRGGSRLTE

Row | IC50 [nM] | SMILES
1 | 0.404 | CCCCCCN(CCCCCC)C(=O)c1cc2ccccc2n(Cc2ccccn2)c1=O [Compound 18]
2 | 53.4 | CCCCCCCCCCN(CCCCCCCCCC)C(=O)c1cc2ccccc2n(Cc2ccccc2)c1=O [Compound 06]
3 | 0.192 | CCCCCCN(CCCCCC)C(=O)c1cc2ccccc2n(Cc2ccncc2)c1=O [Compound 20]
4 | 0.368 | CCCCCCN(CCCCCC)C(=O)c1cc2ccccc2n(Cc2cccnc2)c1=O [Compound 19, N,N-dihexyl-1-(3-picolyl)-1,2-dihydro-2-oxoquinoline-3-carboxamide]
5 | 0.132 | CCCCCCN(CCCCCC)C(=O)c1cc2ccc(Cl)cc2n(Cc2ccccc2)c1=O [Compound 23]
6 | 1.71 | CCCN(CCC)C(=O)c1cc2ccccc2n(Cc2ccccc2)c1=O [Compound 04]

Row | SMILES | IC50 [nM]
7 | CCCCCCN(CCCCCC)C(=O)c1cc2ccccc2n(Cc2ccccc2)c1=O [Compound 05] | 0.159
8 | CCCCCCN(CCCCCC)C(=O)c1cc2ccccc2n(CCc2ccccc2)c1=O [Compound 21] | 6.58
